Measured values published in paper PMC8530378, “Comparison of: (2S,4R)-4-[^18F]Fluoroglutamine, [^11C]Methionine, and 2-Deoxy-2-[^18F]Fluoro-D-Glucose and Two Small-Animal PET/CT Systems Imaging Rat Gliomas” (Frontiers in Oncology, 2021).

Legend:
orthotopic BT4C gliomas = test: Dynamic PET/CT imaging of orthotopic BT4C gliomas, tumor-to-healthy brain uptake ratio (TBR); format: in vivo; settings: dynamic PET images, both cameras pooled, BT4C glioma-bearing BDIX rats
Description: The 16 glioma-bearing BDIX-Ifz rats (herein "BDIX") for imaging studies (8 weeks old, 9 males and 7 females) were anesthetized under 2-2.5% isoflurane and given buprenorphine (0.01 mg/kg) and carprofen (5 mg/kg) for analgesia during surgery. […] All animals were sacrificed after either the final imaging (PET studies) or the final blood sample collection (metabolism studies) under deep isoflurane anesthesia (4%) via cervical dislocation after cardiac puncture to collect terminal blood samples. […] The injected amount of radioactivity also varied based on camera and radionuclide. […] Each PET image was separately examined, in the initial 20 s of frames for the amino-acid-based radiopharmaceuticals and 40-60 min frames for [^18F]FDG, to manually delineate heart left ventricle cavity voxels to use as a blood radioactivity estimation region of interest (ROI). […] The dynamic PET image data was then extracted from each separate image and converted to standardized uptake values (SUV) which account for ROI volume, mean ROI radioactivity, subject weight, and total injected radioactivity dose (corrected for decay, residual syringe and cannula radioactivity). The results are shown as SUV ROI radioactivity curves over time as well as tumor-to-healthy brain region (TBR) ratios for improved comparisons. […]

[1] = [^18F]FGln in vivo stability analysis (bioavailable fraction of whole blood radioactivity); settings: both sexes, BDIX, rat, 40 MBq, healthy BDIX rats, approximately 60 min post-injection, n = 10, read-out: Bioavailable [^18F]FGln-fraction of total blood radioactivity
Description: Additional healthy BDIX rats (n = 10, 5 male, 5 female) were injected with approximately 40 MBq of [^18F]FGln and 150–200 µL aliquots of blood drawn at 5, 15, 30, 45, and 60 min into a heparin coated vial at 5°C to be assayed. During the final 60 min collection time point, animals were sacrificed under deep anesthesia via cardiac puncture and cervical dislocation. All radioactivity measurements were performed with a 3″ Nal system (Triathler, Hidex Oy, Turku Finland). Whole blood was weighed and measured for radioactivity before being centrifuged at 700 ×g and 4°C for 5 min. The plasma was separated out before being weighed and gamma counted followed by storage on ice for the later described assays. Hematocrit values used were averaged separately for male and female populations with five samples for each group. The following Equation 1 ([23]) was then used to calculate the radioactivity fraction taken up by the red blood cells and the available plasma fraction to avoid including plasma contamination in the blood cell fraction: […]
Where C = radioactivity concentration, ρ = density, RBC = red blood cell, and HCT = hematocrit. […]
Plasma aliquots (80 µL) were then precipitated with methanol (200 µL) before being vortexed thoroughly and centrifuged at 11,000 ×g for 10 min. The two fractions were separated and measured for radioactivity to calculate the unbound radioactivity fraction of the plasma. […]

[2] = test system: BT4C glioma and healthy brain ROIs; test: Logan plot (reversible uptake model) of dynamic [^18F]FGln PET; format: in vivo, BDIX rats; settings: n = 13; for DV (AB): arterial blood radioactivity input; for DV (P): unbound plasma radioactivity fraction input
Text: (§1) The dynamic PET image data was then extracted from each separate image and converted to standardized uptake values (SUV) which account for ROI volume, mean ROI radioactivity, subject weight, and total injected radioactivity dose (corrected for decay, residual syringe and cannula radioactivity). The results are shown as SUV ROI radioactivity curves over time as well as tumor-to-healthy brain region (TBR) ratios for improved comparisons. [^18F]FGln uptake data and blood radioactivity data (corrected for bioavailability fraction over time) were also input into multiple pharmacokinetic models described in the "[^18F]FGln Pharmacokinetic Modeling" section.
(§2) Blood input values from the heart left ventricle ROI in the PET image data were corrected for bioavailable fraction with Eqn. 2. Logan ([25]), Patlak ([26]), and two two-compartment models ([27]) (reversible and irreversible) were applied to whole-blood, unbound plasma fraction, and unbound plasma fraction assayed for parent-radiopharmaceutical purity as inputs for tumor and healthy brain ROIs. Mean, standard deviation, and two-tailed unpaired Student's t-test (for camera comparison, modeling values, and gender differences) p-values are reported where applicable.

[3] = test system: BT4C glioma and healthy brain ROIs; test: Patlak plot (irreversible uptake model) of dynamic [^18F]FGln PET; format: in vivo, BDIX rats; settings: n = 13; for Ic (AB) y intercept: arterial blood input; for Ic (FP) y intercept: free parent plasma input; for Ic (P) y intercept: unbound plasma input
Text: as §1, §2

[4] = test system: BT4C glioma and healthy brain ROIs; test: Reversible two-tissue compartment model of dynamic [^18F]FGln PET; format: in vivo, BDIX rats; settings: reversible 2-tissue model, n = 13; for K1 (AB) plasma to tissue transport rate / K1/k2 (AB) equilibrium distribution volume / k3 (AB) rate constant / k3/k4 (AB): arterial blood input; for K1 (FP) plasma to tissue transport rate / K1/k2 (FP) equilibrium distribution volume / k3 (FP) rate constant / k3/k4 (FP): free parent plasma input; for K1 (P) plasma to tissue transport rate / K1/k2 (P) equilibrium distribution volume / k3 (P) rate constant / k3/k4 (P): unbound plasma input
Text: as §1, §2

[5] = test system: BT4C glioma and healthy brain ROIs; test: Irreversible two-tissue compartment model of dynamic [^18F]FGln PET; format: in vivo, BDIX rats; settings: irreversible 2-tissue model, n = 13; for K1 (AB) plasma to tissue transport rate / K1/k2 (AB) equilibrium distribution volume / k3 (AB) rate constant / k3/(k2+k3) (AB): arterial blood input; for K1 (FP) plasma to tissue transport rate / K1/k2 (FP) equilibrium distribution volume / k3 (FP) rate constant / k3/(k2+k3) (FP): free parent plasma input; for K1 (P) plasma to tissue transport rate / K1/k2 (P) equilibrium distribution volume / k3 (P) rate constant / k3/(k2+k3) (P): unbound plasma input
Text: as §1, §2

BT4C gliomas = test: Ex vivo brain autoradiography, tumor-to-healthy brain uptake ratio; format: in vivo; settings: ex vivo autoradiography of brain slices, BT4C glioma-bearing BDIX rats
Description: Ex vivo biodistribution studies were performed for [^18F]FGln with a complete organ list and results are listed in the Supplementary Material Some subjects from each radiopharmaceutical imaging group were sacrificed for autoradiographical and histological studies immediately after PET imaging. All autoradiography images were analyzed with Carimas software (Turku PET Centre, Turku, Finland).
The excised brains containing tumors were frozen with liquid nitrogen, sectioned with a Leica CM3050S cryotome into alternating 20 and 8 µm slices on different slides for hematoxylin/eosin and future histochemical staining respectively. […] The slides were then stained with hematoxylin/eosin and digitally scanned with a Pannoramic 250 Flash slide scanner (3DHistech, Budapest, Hungary) Autoradiographs and light micrographs were then aligned in Carimas software (Turku PET Centre, Turku, Finland) and analyzed therein.

## NC(=O)[C@H]([18F])C[C@H](N)C(=O)O [[^18F]FGln, (2S,4R)-4-[^18F]Fluoroglutamine]
Orthotopic BT4C gliomas
  Average tumor-to-healthy brain tissue uptake ratio (TBR), maximum: 1.99 ± 0.19
[1]
  bioavailability at 60 min: 28.1%
[2]; free parent plasma input
  Tumor DV/Healthy Brain DV (FP): 2.31 ± 0.40
[2]; healthy brain ROI
  DV (AB): 0.66 ± 0.19
  DV (P): 0.48 ± 0.14
[2]; healthy brain ROI, free parent plasma input
  DV (FP): 1.72 ± 0.66
[2]; tumor ROI
  DV (AB): 1.35 ± 0.36
  DV (P): 1.00 ± 0.30
[2]; tumor ROI, free parent plasma input
  DV (FP): 4.00 ± 1.96
[3]; healthy brain
  Ic (AB) y intercept: 0.376 ± 0.114
  Ic (FP) y intercept: 0.495 ± 0.195
  Ic (P) y intercept: 0.236 ± 0.076
[3]; tumor
  Ic (AB) y intercept: 0.676 ± 0.221
  Ic (FP) y intercept: 0.823 ± 0.376
  Ic (P) y intercept: 0.418 ± 0.149
[4]; healthy brain
  K1 (AB) plasma to tissue transport rate: 0.118 ± 0.132 mL min^-1 mL^-1
  K1/k2 (AB) equilibrium distribution volume: 0.248 ± 0.128 mL mL^-1
  k3 (AB) rate constant: 0.060 ± 0.039 min⁻¹
  k3/k4 (AB): 3.279 ± 1.395 min min^-1
  K1 (FP) plasma to tissue transport rate: 0.033 ± 0.023 mL min^-1 mL^-1
  K1/k2 (FP) equilibrium distribution volume: 0.528 ± 0.363 mL mL^-1
  k3 (FP) rate constant: 0.196 ± 0.354 min⁻¹
  k3/k4 (FP): 4.462 ± 1.312 min min^-1
  K1 (P) plasma to tissue transport rate: 0.041 ± 0.031 mL min^-1 mL^-1
  K1/k2 (P) equilibrium distribution volume: 0.137 ± 0.062 mL mL^-1
  k3 (P) rate constant: 0.086 ± 0.039 min⁻¹
  k3/k4 (P): 4.021 ± 1.249 min min^-1
[4]; tumor
  K1 (AB) plasma to tissue transport rate: 0.133 ± 0.079 mL min^-1 mL^-1
  K1/k2 (AB) equilibrium distribution volume: 0.551 ± 0.221 mL mL^-1
  k3 (AB) rate constant: 0.073 ± 0.054 min⁻¹
  k3/k4 (AB): 2.901 ± 1.331 min min^-1
  K1 (FP) plasma to tissue transport rate: 0.057 ± 0.023 mL min^-1 mL^-1
  K1/k2 (FP) equilibrium distribution volume: 1.646 ± 2.403 mL mL^-1
  k3 (FP) rate constant: 0.291 ± 0.481 min⁻¹
  k3/k4 (FP): 4.466 ± 1.378 min min^-1
  K1 (P) plasma to tissue transport rate: 0.052 ± 0.026 mL min^-1 mL^-1
  K1/k2 (P) equilibrium distribution volume: 0.331 ±0.125 mL mL^-1
  k3 (P) rate constant: 0.231 ± 0.478 min⁻¹
  k3/k4 (P): 3.191 ± 1.559 min min^-1
[5]; healthy brain
  K1 (AB) plasma to tissue transport rate: 0.063 ± 0.053 mL min^-1 mL^-1
  K1/k2 (AB) equilibrium distribution volume: 0.338 ± 0.159 mL mL^-1
  k3 (AB) rate constant: 0.022 ± 0.010 min⁻¹
  k3/(k2+k3) (AB): 0.126 ± 0.068 min min^-1
  K1 (FP) plasma to tissue transport rate: 0.033 ± 0.018 mL min^-1 mL^-1
  K1/k2 (FP) equilibrium distribution volume: 0.524 ± 0.324 mL mL^-1
  k3 (FP) rate constant: 0.064 ± 0.063 min⁻¹
  k3/(k2+k3) (FP): 0.420 ± 0.146 min min^-1
  K1 (P) plasma to tissue transport rate: 0.024 ± 0.017 mL min^-1 mL^-1
  K1/k2 (P) equilibrium distribution volume: 0.221 ± 0.105 mL mL^-1
  k3 (P) rate constant: 0.028 ± 0.014 min⁻¹
  k3/(k2+k3) (P): 0.215 ± 0.096 min min^-1
[5]; tumor
  K1 (AB) plasma to tissue transport rate: 0.088 ± 0.039 mL min^-1 mL^-1
  K1/k2 (AB) equilibrium distribution volume: 0.876 ± 0.29 mL mL^-1
  k3 (AB) rate constant: 0.017 ± 0.005 min⁻¹
  k3/(k2+k3) (AB): 0.156 ± 0.078 min min^-1
  K1 (FP) plasma to tissue transport rate: 0.083 ± 0.113 mL min^-1 mL^-1
  K1/k2 (FP) equilibrium distribution volume: 1.841 ± 0.967 mL mL^-1
  k3 (FP) rate constant: 0.105 ± 0.246 min⁻¹
  k3/(k2+k3) (FP): 0.385 ± 0.157 min min^-1
  K1 (P) plasma to tissue transport rate: 0.037 ± 0.015 mL min^-1 mL^-1
  K1/k2 (P) equilibrium distribution volume: 0.685 ± 0.330 mL mL^-1
  k3 (P) rate constant: 0.017 ± 0.007 min⁻¹
  k3/(k2+k3) (P): 0.226 ± 0.078 min min^-1
BT4C gliomas
  Tumor-to-healthy brain uptake ratio: 4.07 ± 0.49

## 2-deoxy-2-[^18F]fluoro-D-glucose [[^18F]FDG]
Orthotopic BT4C gliomas
  Average tumor-to-healthy brain tissue uptake ratio (TBR), maximum: 1.41 ± 0.11
BT4C gliomas
  Tumor-to-healthy brain uptake ratio: 2.93 ± 0.57
